Each structure is given as a SMILES string. Bridge positions count the residues as written; N and C are the ends. Square brackets hold non-standard residues; d marks the D form. Peptide text beside a SMILES is read from it. ξ: configuration not given here. Phe(3,4-Cl2) = N[C@@H](Cc1ccc(Cl)c(Cl)c1)C(=O)O; Bip = N[C@@H](Cc1ccc(-c2ccccc2)cc1)C(=O)O; Phe(4-Cl) = N[C@@H](Cc1ccc(Cl)cc1)C(=O)O; hSer = N[C@@H](CCO)C(=O)O; NMeA = CN[C@@H](C)C(=O)O; ξD = NC(CC(=O)O)C(=O)O

In general, IC50 refers to the concentration that inhibits the measured activity by half.

Sequence of human PCSK9 (Q8NBP7 153-692): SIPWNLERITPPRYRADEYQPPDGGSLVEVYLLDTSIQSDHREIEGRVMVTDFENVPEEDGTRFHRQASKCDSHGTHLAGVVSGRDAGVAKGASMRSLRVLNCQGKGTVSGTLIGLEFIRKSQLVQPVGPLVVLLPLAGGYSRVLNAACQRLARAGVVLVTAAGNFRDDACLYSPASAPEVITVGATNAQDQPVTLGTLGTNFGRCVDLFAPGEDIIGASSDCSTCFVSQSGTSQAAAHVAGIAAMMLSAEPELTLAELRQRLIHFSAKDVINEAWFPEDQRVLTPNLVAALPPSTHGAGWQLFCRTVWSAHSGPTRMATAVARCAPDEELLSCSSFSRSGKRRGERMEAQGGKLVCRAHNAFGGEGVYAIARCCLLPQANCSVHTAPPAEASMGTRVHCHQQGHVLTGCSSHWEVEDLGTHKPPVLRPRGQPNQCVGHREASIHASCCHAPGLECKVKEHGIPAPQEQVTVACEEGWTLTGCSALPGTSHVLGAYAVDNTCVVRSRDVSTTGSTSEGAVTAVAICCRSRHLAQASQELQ
Sequence of human PCSK9 (Q8NBP7 31-152 partner limits assumed): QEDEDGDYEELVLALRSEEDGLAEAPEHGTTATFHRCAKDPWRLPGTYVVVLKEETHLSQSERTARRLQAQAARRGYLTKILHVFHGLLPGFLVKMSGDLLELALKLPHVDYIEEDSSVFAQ

In the first test the target is human PCSK9 (Homo sapiens, UniProt Q8NBP7). Nature of the test: PCSK9 ligand binding assay (TR-FRET): interference with binding of human PCSK9 to human LDLR. The conditions noted are these: PCSK9 FRET assay, efficacy (Amax); 0% = DMSO, 100% = 1 uM unlabeled human PCSK9. As to the method:
The activity of cyclic polypeptides according to the disclosure as PCSK9 can be assessed using a time resolved fluorescence resonance energy transfer (TR-FRET) assay. This time resolved fluorescence resonance energy transfer (TR-FRET) assay measures the ability of a cyclic polypeptides of the disclosure to interfere with the binding of human PCSK9 to human LDLR, providing measures of both potency (IC50) and efficacy (Amax).
Solutions of varying concentrations are prepared by diluting a cyclic polypeptide of the disclosure in dimethylsulfoxide (DMSO) and the resulting solutions are pipetted into a plate. DMSO is used as a negative control. An intermediate plate is prepared in by transferring a known amount of each polypeptide solution and of the control from the compound plate into a corresponding well containing assay buffer and mixing thoroughly. A third plate is then prepared to be used for the assay by adding Human PCSK9 Alexa Fluor 647, followed by a known amount of each solution from the intermediate plate. Unlabeled human PCSK9 in assay buffer containing DMSO is used as a positive control for the assay. Following incubation, Human LDLR extracellular domain-Europium Kryptate is added to each well of the assay plate and the resulting mixture is incubated for an additional period of time. The TR-FRET signal is measured and the FRET ratio (FRET/Europium) is used to calculate the IC50 and Amax of the cyclic polypeptides.
The PCSK9 binding of the cyclic polypeptides of the disclosure were measured using a time resolved fluorescence resonance energy transfer (TR-FRET) assay. This time resolved fluorescence resonance energy transfer (TR-FRET) assay measures the ability of a cyclic polypeptide of the disclosure to interfere with the binding of human PCSK9 to human LDLR, providing measures of both potency (IC50) and efficacy (Amax).
• Human PCSK9 • Human PCSK9 Alexa Fluor 647 • Human LDLR extracellular domain-Europium Kryptate • Proxi plate-low volume assay plate (PerkinElmer #6008280) • Greiner V-bottom (Greiner BioOne #781280) • Assay Buffer • 20 mM HEPES, pH 7.5 • 150 mM NaCl • 1 mM CaCl2 • 0.01% v/v Tween20 • 0.01% w/v BSA
A master compound plate was prepared in a Greiner V bottom plate by diluting cyclic polypeptides of the disclosure in dimethylsulfoxide to the correct concentration for the desired top concentration based on the desired final concentration: for a 30 uM final concentration the master plate concentration is 1.5 mM (68 uL DMSO+12 uL 10 mM of a cyclic polypeptide of the disclosure), for a 10 uM final concentration the master plate concentration is 0.5 mM (76 uL DMSO+4 uL 10 mM of a cyclic polypeptide of the disclosure), for a 3 uM final concentration the master plate concentration is 150 uM (69 uL DMSO+1 uL 10 mM a cyclic peptide of the disclosure). These solutions were pipetted into columns 1 and 11 of the compound plate. Threefold serial dilutions were generated in columns 2-10 and 12-20 of the compound plate by transferring 10 uL into 20 μL of DMSO. Columns 21 and 22 of the compound plate were negative controls containing DMSO alone.
An intermediate plate was generated in a Greiner V bottom plate by transferring 8 uL from each well of the master plate into a corresponding well containing 92 μL of assay buffer and mixing thoroughly.
A Proxi plate-low volume assay plate was used for the assay. To all wells of the plate was added 10 μL of 16 nM Human PCSK9 Alexa Fluor 647, followed by 5 uL from the intermediate plate. […] Following a 30 minute incubation, 5 μL of 4 nM Human LDLR extracellular domain-Europium Kryptate was added and the mixture was incubated for an additional 2 hours.
The TR-FRET signal was measured on an EnVision or PheraStar instrument with a […] delay, 330 nm excitation and 665 nm emission (FRET), and 330 nm excitation and 615 nm (Europium). The FRET ratio (FRET/Europium) was used for calculations. […]
(In general: In TR-FRET formats the signal depends on donor and acceptor labels being close together.)
As to `CC(C)[C@@H]1NC(=O)[C@H](Cc2ccccc2)NC(=O)CSC[C@@H](C(=O)NCC(N)=O)NC(=O)[C@@H]2CCCN2C(=O)[C@H](C)NC(=O)[C@H](CCCCN)NC(=O)[C@H](C)N(C)C(=O)[C@H](Cc2ccc(-c3ccccc3)cc2)NC(=O)[C@H](C)N(C)C(=O)[C@H](Cc2ccccc2)NC(=O)[C@H]([C@@H](C)O)NC(=O)[C@H]([C@@H](C)O)NC(=O)[C@H](CC(N)=O)NC1=O` [Example 1-23, Ac*-F-V-N-T-T-F-(N-Me)A-B-(N-Me)A-K-A-P-C*-G-NH2] ({CH2CO}-FVNTTF[NMeA][Bip][NMeA]KAPCG-NH2; thioether N-13), the Maximum % inhibition amounted to 36%.

`CC(C)[C@@H]1NC(=O)[C@H](Cc2ccccc2)NC(=O)CSC[C@@H](C(=O)NCC(N)=O)NC(=O)[C@@H]2CCCN2C(=O)[C@H](C)NC(=O)[C@H](CCC(=O)O)NC(=O)[C@H](C)N(C)C(=O)[C@H](Cc2ccc(-c3ccccc3)cc2)NC(=O)[C@H](C)N(C)C(=O)[C@H](Cc2ccccc2)NC(=O)[C@H]([C@@H](C)O)NC(=O)[C@H]([C@@H](C)O)NC(=O)[C@H](CO)NC1=O` [Example 1-24, Ac*-F-V-S-T-T-F-(N-Me)A-B-(N-Me)A-E-A-P-C*-G-NH2] ({CH2CO}-FVSTTF[NMeA][Bip][NMeA]EAPCG-NH2; thioether N-13) showed a Maximum % inhibition of 70%.

`CC(C)[C@@H]1NC(=O)[C@H](Cc2ccccc2)NC(=O)CSC[C@@H](C(=O)NCC(N)=O)NC(=O)[C@@H]2CCCN2C(=O)[C@H](CO)NC(=O)[C@H](CCC(=O)O)NC(=O)[C@H](C)N(C)C(=O)[C@H](Cc2ccc(-c3ccccc3)cc2)NC(=O)[C@H](C)N(C)C(=O)[C@H](Cc2ccc(-c3ccccc3)cc2)NC(=O)[C@H]([C@@H](C)O)NC(=O)[C@H]([C@@H](C)O)NC(=O)[C@H](CO)NC1=O` [Example 1-25, Ac*-F-V-S-T-T-B-(N-Me)A-B-(N-Me)A-E-S-P-C*-G-NH2] ({CH2CO}-FVSTT[Bip][NMeA][Bip][NMeA]ESPCG-NH2; thioether N-13) had a Maximum % inhibition of 68%. On the same count and under the same terms, next, `CC(C)[C@@H]1NC(=O)[C@H](Cc2ccccc2)NC(=O)CSC[C@@H](C(=O)NCC(N)=O)NC(=O)[C@@H]2CCCN2C(=O)[C@H](CO)NC(=O)[C@H](CCC(=O)O)NC(=O)[C@H](C)N(C)C(=O)[C@H](Cc2ccc(Cl)c(Cl)c2)NC(=O)[C@H](C)N(C)C(=O)[C@H](Cc2ccc(-c3ccccc3)cc2)NC(=O)[C@H]([C@@H](C)O)NC(=O)[C@H]([C@@H](C)O)NC(=O)[C@H](CC(=O)O)NC1=O` [Example 1-26, Ac*-F-V-D-T-T-B-(N-Me)A-(3,4-diCl)F-(N-Me)A-E-S-P-C*-G-NH2] ({CH2CO}-FVDTT[Bip][NMeA][Phe(3,4-Cl2)][NMeA]ESPCG-NH2; thioether N-13): 84%.

Compound `C[C@@H]1NC(=O)[C@H](C)N(C)C(=O)[C@H](Cc2ccc(-c3ccccc3)cc2)NC(=O)[C@H](C)N(C)C(=O)[C@H](Cc2ccccc2)NC(=O)[C@H]([C@@H](C)O)NC(=O)[C@H]([C@@H](C)O)NC(=O)[C@H](CC(N)=O)NC(=O)[C@H](CCC(=O)O)NC(=O)[C@H](Cc2ccccc2)NC(=O)CSC[C@@H](C(=O)NCC(N)=O)NC(=O)[C@@H]2CCCN2C(=O)[C@H](CO)NC1=O` [Example 1-27, Ac*-F-E-N-T-T-F-(N-Me)A-B-(N-Me)A-A-S-P-C*-G-NH2] ({CH2CO}-FENTTF[NMeA][Bip][NMeA]ASPCG-NH2; thioether N-13) returned a Maximum % inhibition of 55%. Still for that read-out and setting: next, `CC(C)[C@@H]1NC(=O)[C@H](Cc2ccccc2)NC(=O)CSC[C@@H](C(N)=O)NC(=O)[C@@H]2CCCN2C(=O)[C@H](C)NC(=O)[C@@H]2CCCN2C(=O)[C@H](C)N(C)C(=O)[C@H](Cc2ccc(Cl)cc2)NC(=O)[C@H](C)N(C)C(=O)[C@H](Cc2ccccc2)NC(=O)[C@H]([C@@H](C)O)NC(=O)[C@H]([C@@H](C)O)NC(=O)[C@@H]2CCCN2C1=O` [Example 2-1, (6S,8aS,14S,17S,20S,23S,26S,29S,31aS,37S,40S,46R,48aS)-23,40-dibenzyl-17-(4-chlorobenzyl)-26,29-bis((R)-1-hydroxyethyl)-37-isopropyl-6,14,15,20,21-pentamethyl-5,8,13,16,19,22,25,28,31,36,39,42,48-tridecaoxohexatetracontahydro-13H-tripyrrolo[1,2-e1:1′,2′-j:1″,2″-k1][1]thia[4,7,10,13,16,19,22,25,28,31,34,37,40]tridecaazacyclodo-tetracontine-46-carboxamide] ({CH2CO}-FVPTTF[NMeA][Phe(4-Cl)][NMeA]PAPC-NH2; thioether N-13): 50%; `CC(C)[C@@H]1NC(=O)[C@H](Cc2ccccc2)NC(=O)CSC[C@@H](C(N)=O)NC(=O)[C@@H]2CCCN2C(=O)[C@H](C)NC(=O)C(CC(=O)O)NC(=O)[C@H](C)N(C)C(=O)[C@H](Cc2ccc(Cl)cc2)NC(=O)[C@H](C)N(C)C(=O)[C@H](Cc2ccccc2)NC(=O)[C@H]([C@@H](C)O)NC(=O)[C@H]([C@@H](C)O)NC(=O)[C@@H]2CCCN2C1=O` (stereo partly drawn) [Example 2-2, Ac*-F-V-P-T-T-F-(N-Me)A-(p-Cl)F-(N-Me)A-D-A-P-C*-NH2] ({CH2CO}-FVPTTF[NMeA][Phe(4-Cl)][NMeA][ξD]APC-NH2; thioether N-13): 72%. Still for that read-out and setting: next, `CC(C)[C@@H]1NC(=O)[C@H](Cc2ccccc2)NC(=O)CSC[C@@H](C(N)=O)NC(=O)[C@@H]2CCCN2C(=O)[C@H](C)NC(=O)C(CC(=O)O)NC(=O)[C@H](C)N(C)C(=O)[C@H](Cc2ccc(Cl)cc2)NC(=O)[C@H](C)N(C)C(=O)[C@H](Cc2ccccc2)NC(=O)[C@H]([C@@H](C)O)NC(=O)[C@H]([C@@H](C)O)NC(=O)[C@H](CCO)NC1=O` (stereo partly drawn) [Example 2-3, Ac*-F-V-HomoSer-T-T-F-(N-Me)A-(p-Cl)F-(N-Me)A-D-A-P-C*-NH2] ({CH2CO}-FV[hSer]TTF[NMeA][Phe(4-Cl)][NMeA][ξD]APC-NH2; thioether N-13): 75%. On the same count and under the same terms, then `CC(C)[C@@H]1NC(=O)[C@H](Cc2ccccc2)NC(=O)CSC[C@@H](C(N)=O)NC(=O)[C@@H]2CCCN2C(=O)[C@H](CCCNC(=N)N)NC(=O)[C@H](CC(=O)O)NC(=O)[C@H](C)N(C)C(=O)[C@H](Cc2ccc(-c3ccccc3)cc2)NC(=O)[C@H](C)N(C)C(=O)[C@H](Cc2ccc(-c3ccccc3)cc2)NC(=O)[C@H]([C@@H](C)O)NC(=O)[C@H]([C@@H](C)O)NC(=O)[C@H](CO)NC1=O` [Example 2-4, Ac*-F-V-S-T-T-B-(N-Me)A-B-(N-Me)A-D-R-P-C*-NH2] ({CH2CO}-FVSTT[Bip][NMeA][Bip][NMeA]DRPC-NH2; thioether N-13), with 28%; and `CC(C)[C@@H]1NC(=O)[C@H](Cc2ccccc2)NC(=O)CSC[C@@H](C(N)=O)NC(=O)[C@@H]2CCCN2C(=O)[C@H](C)NC(=O)[C@H](CC(N)=O)NC(=O)[C@H](C)N(C)C(=O)[C@H](Cc2ccc(Cl)cc2)NC(=O)[C@H](C)N(C)C(=O)[C@H](Cc2ccccc2)NC(=O)[C@H]([C@@H](C)O)NC(=O)[C@H]([C@@H](C)O)NC(=O)[C@H](C)NC1=O` [Example 2-5, Ac*-F-V-A-T-T-F-(N-Me)A-(p-Cl)F-(N-Me)A-N-A-P-C*-NH2] ({CH2CO}-FVATTF[NMeA][Phe(4-Cl)][NMeA]NAPC-NH2; thioether N-13), with 46%. `CC(C)[C@@H]1NC(=O)[C@H]([C@@H](C)O)NC(=O)[C@H]([C@@H](C)O)NC(=O)[C@@H]2CCCN2C(=O)[C@H](C(C)C)NC(=O)[C@H](Cc2ccccc2)NC(=O)CSC[C@@H](C(N)=O)NC(=O)[C@@H]2CCCN2C(=O)[C@H](C)NC(=O)[C@H](CCC(=O)O)NC(=O)[C@H](C)N(C)C(=O)[C@H](Cc2ccc(Cl)cc2)NC(=O)[C@H](C)N(C)C1=O` [Example 2-6, Ac*-F-V-P-T-T-V-(N-Me)A-(p-Cl)F-(N-Me)A-E-A-P-C*-NH2] ({CH2CO}-FVPTTV[NMeA][Phe(4-Cl)][NMeA]EAPC-NH2; thioether N-13) returned a Maximum % inhibition of 83%.

The test is the same for the next values; noted with them: TR-FRET; Human PCSK9 Alexa Fluor 647 and Human LDLR extracellular domain-Europium Kryptate.
On to `C[C@@H]1NC(=O)[C@H](C)N(C)C(=O)[C@H](Cc2ccc(-c3ccccc3)cc2)NC(=O)[C@H](C)N(C)C(=O)[C@H](Cc2ccccc2)NC(=O)[C@H]([C@@H](C)O)NC(=O)[C@H]([C@@H](C)O)NC(=O)[C@H](CC(N)=O)NC(=O)[C@H](CCC(=O)O)NC(=O)[C@H](Cc2ccccc2)NC(=O)CSC[C@@H](C(=O)NCC(N)=O)NC(=O)[C@@H]2CCCN2C(=O)[C@H](CO)NC1=O` [Example 1-27, Ac*-F-E-N-T-T-F-(N-Me)A-B-(N-Me)A-A-S-P-C*-G-NH2] ({CH2CO}-FENTTF[NMeA][Bip][NMeA]ASPCG-NH2; thioether N-13), for which the IC50 was found to be 410 nM.
